According to ChEMBL document CHEMBL3745593, “Medicinal Chemistry Approaches to Heart Regeneration” (J Med Chem, 2015):

How the values were obtained:
Activin receptor type-1 = molecular target: T1, Activin receptor type-1 (Homo sapiens, UniProt Q04771); assay: Inhibition of human ALK2 in presence of (33P)gamma ATP
T1 sequence (Q04771 whole entry): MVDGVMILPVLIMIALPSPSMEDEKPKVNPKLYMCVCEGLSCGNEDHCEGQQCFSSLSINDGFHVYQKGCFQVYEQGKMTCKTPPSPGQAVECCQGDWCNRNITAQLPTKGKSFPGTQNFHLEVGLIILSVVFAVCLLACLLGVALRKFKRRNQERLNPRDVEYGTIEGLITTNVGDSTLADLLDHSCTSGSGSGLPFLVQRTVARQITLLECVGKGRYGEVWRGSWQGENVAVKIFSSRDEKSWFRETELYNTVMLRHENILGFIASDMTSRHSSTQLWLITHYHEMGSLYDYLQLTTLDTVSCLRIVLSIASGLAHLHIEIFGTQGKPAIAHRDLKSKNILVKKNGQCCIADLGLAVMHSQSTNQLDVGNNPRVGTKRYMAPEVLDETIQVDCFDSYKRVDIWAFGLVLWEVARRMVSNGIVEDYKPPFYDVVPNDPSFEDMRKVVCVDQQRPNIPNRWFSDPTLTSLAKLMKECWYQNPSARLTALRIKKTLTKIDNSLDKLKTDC

Danio rerio = assay: Inhibition of BMPR in zebra fish embryo assessed as dorsalization administered 3 hr post fertilization
[1] = Induction of cardiogenesis in human embryonic stem cells by DAPI staining based immunofluorescence method relative to control; assay type: functional, Embryonic stem cell
[2] = Induction of cardiogenesis in human embryonic stem cells assessed as as enrichment of pacemaker like cardiomyocytes (reference value: 21%); assay type: functional, Embryonic stem cell
[3] = Induction of cardiogenesis in mouse embryonic stem cells assessed as enrichment of pacemaker like cardiomyocytes by patch clamp technique (reference value: 7%); assay type: functional, Embryonic stem cell
[4] = Induction of cardiogenesis in mouse embryonic stem cells assessed as enrichment of atrial like cardiomyocytes by patch clamp technique (reference value: 7%); assay type: functional, Embryonic stem cell
[5] = Suppression of cardiogenesis in mouse embryonic stem cells assessed as ventricular like cardiomyocytes by patch clamp technique (reference value: 86%); assay type: functional, Embryonic stem cell
[6] = Induction of cardiogenesis in mouse CGR8 cells assessed as cardiac troponin positive cells measured on day 5 +10+2 EB-derived cells by flow cytometry analysis (reference value: 11%); assay type: functional
TGF-beta receptor type-1 = molecular target: T2, TGF-beta receptor type-1 (Homo sapiens, UniProt P36897); assay: Inhibition of human ALK5 in presence of (33P)gamma ATP
T2 sequence (P36897 whole entry): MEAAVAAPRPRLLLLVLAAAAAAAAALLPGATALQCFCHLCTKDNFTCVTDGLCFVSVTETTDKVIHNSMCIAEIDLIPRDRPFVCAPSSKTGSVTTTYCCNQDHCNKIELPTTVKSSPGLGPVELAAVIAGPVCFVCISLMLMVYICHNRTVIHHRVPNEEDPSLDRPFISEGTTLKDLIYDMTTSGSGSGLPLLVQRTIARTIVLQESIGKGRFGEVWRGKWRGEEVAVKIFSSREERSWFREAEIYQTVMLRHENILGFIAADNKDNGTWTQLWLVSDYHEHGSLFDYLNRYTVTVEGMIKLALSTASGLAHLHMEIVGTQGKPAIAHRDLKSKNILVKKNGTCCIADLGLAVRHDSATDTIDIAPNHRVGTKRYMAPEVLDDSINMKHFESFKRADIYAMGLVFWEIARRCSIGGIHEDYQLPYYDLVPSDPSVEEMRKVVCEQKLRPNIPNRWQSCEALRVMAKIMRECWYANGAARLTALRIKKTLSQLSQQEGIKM

[7] = molecular target: Vascular endothelial growth factor receptor 2 (Homo sapiens, UniProt P35968); assay: Inhibition of human KDR in presence of (33P)gamma ATP
Vascular endothelial growth factor receptor 2, sequence (P35968 whole entry): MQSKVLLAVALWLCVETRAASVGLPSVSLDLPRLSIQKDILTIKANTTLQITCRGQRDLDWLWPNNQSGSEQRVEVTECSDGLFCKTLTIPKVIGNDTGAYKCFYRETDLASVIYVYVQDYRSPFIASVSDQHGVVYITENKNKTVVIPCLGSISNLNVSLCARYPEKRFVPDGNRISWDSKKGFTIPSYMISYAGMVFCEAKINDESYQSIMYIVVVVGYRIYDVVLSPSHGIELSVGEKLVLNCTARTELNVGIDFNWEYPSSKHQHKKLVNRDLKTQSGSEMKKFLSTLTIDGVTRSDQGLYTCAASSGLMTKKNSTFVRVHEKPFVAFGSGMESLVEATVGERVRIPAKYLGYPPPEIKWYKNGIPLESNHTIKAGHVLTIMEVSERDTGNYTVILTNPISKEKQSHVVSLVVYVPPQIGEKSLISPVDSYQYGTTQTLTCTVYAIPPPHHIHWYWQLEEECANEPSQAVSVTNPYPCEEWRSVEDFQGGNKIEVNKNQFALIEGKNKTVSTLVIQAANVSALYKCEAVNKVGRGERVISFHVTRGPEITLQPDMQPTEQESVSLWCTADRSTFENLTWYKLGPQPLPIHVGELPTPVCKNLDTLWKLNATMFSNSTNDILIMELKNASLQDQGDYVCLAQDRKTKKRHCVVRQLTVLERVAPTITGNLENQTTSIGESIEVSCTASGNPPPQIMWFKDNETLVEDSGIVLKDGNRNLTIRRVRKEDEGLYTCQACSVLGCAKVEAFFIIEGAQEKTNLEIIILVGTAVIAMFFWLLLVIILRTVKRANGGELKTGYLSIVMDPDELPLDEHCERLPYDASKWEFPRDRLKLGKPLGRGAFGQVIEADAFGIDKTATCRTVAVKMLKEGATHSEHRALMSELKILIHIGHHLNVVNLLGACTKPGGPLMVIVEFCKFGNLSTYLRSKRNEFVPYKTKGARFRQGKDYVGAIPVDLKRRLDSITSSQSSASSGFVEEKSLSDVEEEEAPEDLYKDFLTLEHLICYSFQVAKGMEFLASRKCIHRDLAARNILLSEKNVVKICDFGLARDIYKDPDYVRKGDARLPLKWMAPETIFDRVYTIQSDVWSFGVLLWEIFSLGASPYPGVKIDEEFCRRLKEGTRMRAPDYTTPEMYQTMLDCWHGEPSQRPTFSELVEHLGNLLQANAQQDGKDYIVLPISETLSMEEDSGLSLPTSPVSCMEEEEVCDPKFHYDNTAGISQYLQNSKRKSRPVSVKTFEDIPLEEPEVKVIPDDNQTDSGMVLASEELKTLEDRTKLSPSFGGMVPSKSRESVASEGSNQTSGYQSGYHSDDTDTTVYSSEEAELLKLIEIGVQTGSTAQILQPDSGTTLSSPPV

CC(C)Oc1ccc(-c2cnc3c(-c4ccnc5ccccc45)cnn3c2)cc1
IC50 (Activin receptor type-1): 100 nM | EC100 (Danio rerio): 0.2 µM

C[S+]([O-])c1ccc(-c2nc(-c3ccc(F)cc3)c(-c3ccncc3)[nH]2)cc1 (configuration not stated) [SB-203580]
fold change (FC) [1]: 2.5

COc1cc2ncnc(Nc3cccc(Cl)c3)c2cc1OC [TYRPHOSTIN AG-1478]
Activity [2]: 52%

CCn1c(=O)[nH]c2ccccc21
Activity [3]: 58% | Activity [4]: 21% | Activity [5]: 21% | Activity [6]: 59%

c1ccc2c(-c3cnn4cc(-c5ccc(N6CCNCC6)cc5)cnc34)ccnc2c1
EC100 (Danio rerio): 3 µM

c1cc(-c2cnn3cc(-c4ccc(OCCN5CCCCC5)cc4)cnc23)ccn1 [DORSOMORPHIN]
IC50 (TGF-beta receptor type-1): 10000 nM | IC50 [7]: 220 nM | EC100 (Danio rerio): 2.5 µM
